The assay has as its target T1, PPARδ-RXRα heterodimer (Homo sapiens, UniProt Q03181).
T1 sequence (Q03181 1-441): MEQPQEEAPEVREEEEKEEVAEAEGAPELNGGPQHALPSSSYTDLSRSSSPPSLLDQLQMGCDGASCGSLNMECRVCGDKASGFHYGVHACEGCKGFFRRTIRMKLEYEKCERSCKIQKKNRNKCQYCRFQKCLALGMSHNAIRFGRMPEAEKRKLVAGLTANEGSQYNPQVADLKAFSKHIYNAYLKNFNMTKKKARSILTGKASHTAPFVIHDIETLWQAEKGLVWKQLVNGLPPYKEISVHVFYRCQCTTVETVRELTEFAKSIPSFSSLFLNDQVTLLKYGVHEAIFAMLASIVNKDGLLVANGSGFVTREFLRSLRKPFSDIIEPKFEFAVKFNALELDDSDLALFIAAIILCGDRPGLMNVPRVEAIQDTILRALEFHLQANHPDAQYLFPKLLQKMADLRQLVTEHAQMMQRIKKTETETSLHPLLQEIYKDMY
T1 sequence (P19793 1-462 partner): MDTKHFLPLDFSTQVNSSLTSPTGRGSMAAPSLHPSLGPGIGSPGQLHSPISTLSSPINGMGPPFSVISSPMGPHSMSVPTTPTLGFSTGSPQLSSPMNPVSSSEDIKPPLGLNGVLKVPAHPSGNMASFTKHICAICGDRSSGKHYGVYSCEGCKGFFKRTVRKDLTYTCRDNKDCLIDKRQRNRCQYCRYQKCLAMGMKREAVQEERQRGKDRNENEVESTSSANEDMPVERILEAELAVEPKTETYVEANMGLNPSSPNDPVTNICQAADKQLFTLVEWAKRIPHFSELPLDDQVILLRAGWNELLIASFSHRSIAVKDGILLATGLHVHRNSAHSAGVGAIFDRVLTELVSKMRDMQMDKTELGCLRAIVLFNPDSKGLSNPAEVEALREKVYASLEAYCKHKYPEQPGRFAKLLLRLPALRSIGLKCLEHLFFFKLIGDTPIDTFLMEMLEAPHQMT
Put plainly: PPARδ-RXRα heterodimer ligand activity (luciferase reporter, PPARδ:RXRα:4ERPP/CHO-K1 cells). It is filed as cell-based. The arrangement: expressed in transfected cells. Particulars: concentration for 50% of maximum fold induction of luciferase, 48 hrs. How it is done: PPARδ-RXRα Heterodimer Ligand Activity
PPARδ:RXRα:4ERPP/CHO-K1 cells obtained in Reference Example 5a were cultured in HAM F12 medium (produced by NISSUI SEIYAKU) containing 10% fetal bovine serum (produced by Life Technologies, Inc., USA) and then seeded in a 96-well white plate (produced by Corning Costar Corporation, USA) at the density of 2×10^4 cells/well, and cultured in a CO2 gas incubator at 37° C. overnight.
After washing the 96 well white plate with PBS (Phosphate-buffered saline), 90 μl of HAM F12 medium containing 0.1% fatty acid-free bovine serum albumin (BSA) and 10 μl of test compound were added, and the cells were cultured in a CO2 gas incubator at 37° C. for 48 hrs. After removing the medium, 40 μl of PicaGene 7.5 (produced by Wako Pure Chemical Industries, Ltd.) was added. After stirring, the luciferase activity was determined using Lumistar (produced by BMG Labtechnologies GmbH, Germany).
The fold induction was calculated from the luciferase activity of each test compound when the luciferase activity in the non-treatment group is taken as 1. The values of the test compound concentration and the fold induction were analyzed using PRISM 2.01 (produced by GraphPad Software Inc. USA) to calculate the EC50 values, the effective concentration of a test compound for 50% of the maximum fold induction. […]

The EC50 is the concentration that produces a half-maximal response. With `Cc1oc(-c2ccccc2)nc1COc1ccc(Sc2nc(-c3ccccc3)c(CCC(=O)O)o2)cc1` [Example 10, 3-[2-[4-(5-methyl-2-phenyl-4-oxazolylmethoxy)phenylthio]-4-phenyl-5-oxazolyl]propionic acid], the half-maximal effective concentration (EC50) came out at 2100 nM. That is a single-digit micromolar value.

Values taken from patent publication US7241785B2, “Five-membered heterocyclic alkanoic acid derivative” (Takeda Pharmaceutical Company Limited, priority 2001, dated 2007).
